Assay results published in patent publication US6214801A, “Imidazo[1,2-a]pyridine C-nucleosides as antiviral agents” (The Regents of the University of Michigan, priority 1999, dated 2001).
Read-outs that look alike come from different tables or passages of the source.

Columns and labels:
HCMV [1] = assay: HCMV plaque (focus) reduction assay in HFF cells; assay type: cell-based; details: for IC50: Human betaherpesvirus 5, HFF cells, 7 to 10 days, read-out: 50% Inhibitory Concentration IC50, Antiviral Activity, HCMV (plaque assay in HFF cells); for antiviral activity (in words): Table 5
Method: (§1) KB cells (available from the American Type Culture Collection (ATCC) 12301 Parklawn Drive, […], Md. 20852 (ATCC CCL 17)), an established human cell line derived from an epidermal oral carcinoma, were grown in minimal essential medium (MEM) (Sigma) with Hanks salts (MEM(H)) supplemented with 5% fetal calf serum. Human foreskin fibroblasts (HFF cells) (provided by the University of Michigan Hospital) and African green monkey kidney cells (BSC-1) (ATTC CCL 26) cells were grown in MEM with Earl salts (MEM(E)) supplemented with 10% fetal bovine serum. Cells were passaged according to conventional procedures and as described in Shipman, C., Jr. et al. (1976) Antimicrob. Agents Chemother. Vol. 9:120 and incorporated herein by reference. Briefly, cells were passaged at 1:2 to 1:10 dilutions according to conventional procedures by using 0.05% trypsin plus 0.02% EDTA in a HEPES buffered salt solution. HFF cells were passaged onlv at 1:2 dilutions.
(§2) A plaque purified isolate, Po, of the Towne strain of HCMV was used in all experiments and was a gift of Dr. Mark Stinski, University of Iowa. The KOS strain of HSV-1 was used and was provided by Dr. Sandra K. Weller, University of Connecticut. Stock preparations of HCMV and HSV-1 were prepared and titered as known to those of skill and the art and described in Turk, S. R. et al. (1987) Antimicrob. Agents Chemother. Vol. 31:544-550 and Shipman, C., Jr., et al. (1990) J. Virol. Methods Vol. 28:101-106, each incorporated herein by reference.
Stock HCMV was prepared by infecting HFF cells at a multiplicity of infection (m.o.i.) of less that 0.01 plaque-forming units (p.f.u.) per cell. Cell growth medium was changed every four days until cytopathology was evident in all cells (approximately 21 days). Supernatant fluids were retained as the virus stock. Four days later, the remaining cells were disrupted by three cycles of freeze-thawing and the cell plus medium held as an additional source of virus. Storage was in liquid nitrogen.
HCMV was titered in 24-well cluster dishes which were plated to contain 5×10^4 HFF cells/well, grown as described above. When the cells were 70 to 80% confluent, 0.2 ml of the virus suspension was added per well and adsorbed as described above. At least three ten-fold dilutions of each preparation were used. Following virus adsorption, the cell sheets were overlayed with 0.5% methocel (4000 CPS) in maintenance medium [MEM(E) with 1.1 g/liter NaHCO3, 100 units/ml penicillin G, 100 μg/ml streptomycin, and 5% fetal bovine serum]. The cultures were incubated in a humidified atmosphere of 4% CO2 -96% air. Viral plaques were visible 5 to 7 days after infection using at least 10-fold magnification. Cells were fixed and stained by a 10-minute exposure to a 0.1% solution of crystal violet in 20% methanol 7 to 12 days after infection. Microscopic foci were enumerated at 20-fold magnification using a Nikon Profile Projector.
(§3) HCMV plaque reduction experiments were performed with monolayer cultures of HFF cells by a procedure similar to that referenced above for titration of the viruses and described in Devivar, R. V. et al. (1994) J. Med. Chem. Vol. 37:2942-2949. Activity of compounds against HSV-1 was evaluated using an ELISA assay.
The effect of compounds of the replication of HCMV was measured using a plaque (focus) reduction assay. For the former, HFF cells in 24-well culture dishes were infected with approximately 50 p.f.u. of HCMV per well using the procedures detailed above. Compounds dissolved in growth medium were added in four to six selected concentrations to duplicate wells following virus adsorption. Following incubation at 37 °C for 7 to 10 days, cell sheets were fixed, stained and microscopic plaques were enumerated as described above. Drug effects were calculated as a percentage of reduction in number of plaques in the presence of each drug concentration compared to the number observed in the absence of drug. […]

[2] = Growth cytotoxicity in KB cells (crystal violet staining); assay type: cell-based; details: human, two population doubling times, read-out: 50% Inhibitory Concentration IC50, Cytotoxicity, Growth (KB cells)
Method: as §1
(§4) Two different methods were used to evaluate cytotoxicity of the compounds. First, cytotoxicity produced in stationary HFF cells was determined by microscopical examination of cells not affected by the virus used in the plaque assay. Second the effect of compounds on KB cells during two population doubling times was determined by crystal violet staining and spectrophotometric quantitation of dye eluted from stained cells. This method has been utilized for the analysis of ganciclovir and zidovudine (See Prichard, M. N. et al. Antiviral Res. (1991) Vol. 35:1060-1065).

HSV-1 = HSV-1 ELISA assay; assay type: cell-based, herpes simplex virus type 1, KOS strain
Method: as §1, §2
Briefly, high titer HSV-1 stocks were prepared as follows. Nearly confluent monolayer cultures of KB cells were grown in 32 oz. glass bottles containing MEM(E) buffered with 25 mM HEPES and supplemented with 5% fetal bovine serum and 0.127 giliter L-arginine (VGM, virus growth medium). The cultures were infected at a low input multiplicity to reduce the formation of defective virus. After cell cytopathology reached "three to four plus", the cells were harvested by vigorous shaking, and concentrated by centrifugation (800×g for 5 min.). The resulting virus pools were stored at -760C until retrieved for use in experiments.
HSV-1 was titered using monolayer cultures of BSC-1 cells. Cells were planted at 3×10^5 cells/well using 6-well cluster dishes. MEM(E) supplemented with 10% fetal bovine serum was employed as medium. After 22-24 h, cells were 90% confluent and were inoculated in triplicate using at least three ten-fold dilutions with 0.2 ml of the virus suspension to be assayed and incubated in a humidified 4% CO2 -[…] atmosphere for one hour to permit viral adsorption. Following virus adsorption, the cell sheet was overlayed with 5 ml of MEM(E) with 5% serum plus 0.5% methocel (4000 CPS) and incubated an additional two to three days. Cells were fixed and stained with 0.1% crystal violet in 20% methanol and macroscopic plaques enumerated.
as §3
ELISA techniques according to standard procedures were also used to determine activity against HSV-1. Drug effects were calculated as a percentage of the reduction in virus titers in the presence of each drug concentration compared to the titer obtained in the absence of drug. Ganciclovir was used as a positive control in all experiments.

in vitro = assay type: cell-based, human; details: human, hff cells
Method: as §1, §4

HIV-1 = HIV-1 replication, reverse transcriptase (RT) assay in CEM cells; assay type: cell-based, HIV-1 strain IIIB; details: Table 6
Method: (§5) CEM cells and strain IIIB of HIV-1 were obtained through courtesy of Dr. Louis S. Kurcera, Boman Gray School of Medicine, Wake Forest University. CEM cells were grown in suspension culture and passaged through conventional procedures.
The activity of compounds against HIV-1 replication was determine by using reverse transcriptase (RT) as a marker for HIV-1. Strain IIIB of HIV-1 was grown in CEM cells maintained in suspension culture as detailed previously (see Kucera et al. AIDS Res. Human Retroviruses, 1993, Vol. 9, pp. 307-314). The assay measured the presence of HIV in supernatants of infected CEM cells by determining the amount of RT activity. Cells were grown, infected with HIV-1, and incubated in the presence of seven concentrations (one-half log10 dilutions) of the test compounds beginning at 1 or 100 μM concentration, depending on the compound to be assayed. Procedures and the RT assay were performed as detailed previously (see White et al., Antiviral Res. 1991, Vol. 16, pp. 257-266).

HFF cells = assay: in vitro; assay type: cell-based, human
Method: as §1, §4

HCMV [3] = details: background; cited from earlier work
[4] = Growth cytotoxicity in CEM cells; assay type: cell-based; details: human, read-out: 50% Inhibitory Concentration IC50, Cytotoxicity, Growth (CEM cells)
Method: as §5

[5] = Human alphaherpesvirus 1; read-out: 50% Inhibitory Concentration IC50, Antiviral Activity, HSV-1 (ELISA assay)

Row | Compound | IC50 (HCMV [1]) | CC50 [2] | IC50 (HSV-1; [5]) | CC50 (in vitro) | HIV-1 antiviral activity (in words) (HIV-1) | antiviral activity (in words) (HCMV [1]) | cytotoxicity (in words) (HFF cells) | antiviral activity of known compounds (in words) (HCMV [3]) | CC50 [4] | IC50 (HSV-1; Human alphaherpesvirus 1, read-out: 50% Inhibitory Concentration IC50, Antiviral Activity, HSV-1 (ELISA assay))
1 | OC[C@H]1O[C@@H](c2c(Cl)c(Cl)cc3nc(Cl)cn23)[C@H](O)[C@@H]1O [Compound 42, 2,6,7-Trichloro-5-(β-D-ribofuranosyl)imidazo[1,2-a]pyridine] | > 100 µM | > 100 µM | > 100 µM | > 100 µM | – | – | – | – | – | –
2 | Clc1ccc2nc(Cl)cn2c1 [Compound 12, 2,6-Dichloro-imidazo[1,2-a]pyridine] | > 100 µM | > 100 µM | > 100 µM | > 100 µM | – | – | – | – | – | –
3 | 5-(5'-O-[(tert-Butyl)dimethylsilyl]-2',3'-O-isopropylidene-β-D-ribofuranosyl)-imidazo[1,2-a]pyridine [Compound 44] | – | – | – | – | HIV-1 antiviral activity at non-cytotoxic concentrations | – | – | – | – | –
4 | O[C@H]1[C@@H](O)CO[C@H]1c1c(Cl)nc2cc(Cl)c(Cl)cn12 [Compound -29] | – | – | – | – | – | excellent antiviral activity | very low cytotoxicity | – | – | –
5 | O[C@@H]1[C@@H](c2c(Cl)nc3cc(Cl)c(Cl)cn23)OC[C@@H]1O [Compound +28, 2,6,7-Trichloro-3-(β-L-erythrofuranosyl)imidazo[1,2-a]pyridine] | > 100 µM | > 100 µM | > 100 µM | > 100 µM | – | – | – | – | – | –
6 | Clc1cn2cc(Cl)c(Cl)cc2n1 [Compound 16, 2,6,7-Trichloro-imidazo[1,2-a]pyridine] | > 100 µM | > 100 µM | > 100 µM | > 100 µM | – | – | – | – | – | –
7 | OC[C@H]1O[C@@H](n2c(Br)nc3cc(Cl)c(Cl)cc32)[C@H](O)[C@@H]1O [BDCRB, 2-bromo-5,6-dichloro-1-(2'-β-D-ribofuranosyl)-benzimidazole] | – | – | – | – | – | – | – | useful against HCMV infections | – | –
8 | Clc1ccn2cc(Cl)nc2c1 [Compound 15, 2,7-Dichloro-imidazo[1,2-a] pyridine] | > 100 µM | > 100 µM | > 100 µM | > 100 µM | – | – | – | – | – | –
9 | OC[C@H]1O[C@H](c2c(Cl)ccc3nc(Cl)cn23)[C@H](O)[C@@H]1O [Compound 38, 2,6-Dichloro-5-(α-D-ribofuranosyl)imidazo[1,2-a]pyridine] | > 100 µM | > 100 µM | > 100 µM | > 100 µM | – | – | – | – | – | –
10 | Nc1nc(O)c2ncn(COC(CO)CO)c2n1 [DHPG, ganciclovir, reference compound] | 7.4 µM | – | – | > 100 µM | – | – | – | – | – | –
11 | O[C@H]1[C@@H](O)CO[C@H]1c1c(Cl)nc2cc(Cl)c(Cl)cn12 [Compound -29, 2,6,7-dichloro-3-(α-L-erythrofuranosyl)imidazo[1,2-α]pyridine] | 17 µM | > 100 µM | > 100 µM | > 100 µM | – | – | – | – | – | –
12 | Clc1cc2nc(Cl)c(C3C=CCO3)n2cc1Cl (racemic) [Compound 26, 2,6,7-Trichloro-3-(2',3'-dideoxy-2',3'-didehydro-β-D/ L-erythro-furanosyl)-imidazo[1,2-a]pyridine] | 32 µM | > 100 µM | > 100 µM | 222 µM | – | – | – | – | > 100 µM | –
13 | O[C@@H]1[C@H](O)CO[C@H]1c1c(Cl)nc2cc(Cl)c(Cl)cn12 [Compound -28, 2,6,7-Trichloro-3-(β-D-erythrofuranosyl)imidazo[1,2-a]pyridine] | > 100 µM | > 100 µM | > 100 µM | > 100 µM | – | – | – | – | – | –
14 | O[C@@H]1[C@H](O)CO[C@@H]1c1c(Cl)nc2cc(Cl)c(Cl)cn12 [Compound +29, 2,6,7-trichloro-3-(α-D-erythrofuranosyl)imidazo[1,2-α]pyridine] | 4.9 µM | > 100 µM | – | > 100 µM | – | excellent antiviral activity | very low cytotoxicity | – | – | 80 µM
15 | OC[C@H]1O[C@@H](c2cccc3nccn23)[C@H](O)[C@@H]1O [Compound 45, 5-(β-D-Ribofuranosyl)imidazo[1,2-a]pyridine] | > 100 µM | > 100 µM | > 100 µM | > 100 µM | – | – | – | – | – | –
16 | OC[C@H]1O[C@H](c2c(Cl)c(Cl)cc3nc(Cl)cn23)[C@H](O)[C@@H]1O [Compound 43, 2,6,7-Trichloro-5-(α-D-ribofuranosyl)imidazo[1,2-a]pyridine] | > 100 µM | > 100 µM | > 100 µM | > 100 µM | – | – | – | – | – | –
17 | OC[C@H]1O[C@@H](c2c(Cl)ccc3nc(Cl)cn23)[C@H](O)[C@@H]1O [Compound 36, 2,6-Dichloro-5-(β-D-ribofuranosyl)imidazo[1,2-a]pyridine] | > 100 µM | > 100 µM | > 100 µM | > 100 µM | – | – | – | – | – | –
18 | Clc1cn2cc(Cl)c(Cl)c(Cl)c2n1 [Compound 18, 2,6,7,8-Tetrachloro-imidazo[1,2-a]pyridine] | > 100 µM | > 100 µM | > 100 µM | > 100 µM | – | – | – | – | – | –
